Source: US7205387B2, “Recombinant polypeptide useful for neurotrophin receptor mediated gene delivery and as neurotrophin agonist” (Agency for Science, Technology and Research, priority 2003, dated 2007)
Bridge positions count the residues as written; N and C are the ends. Ends that are not written are not given here.

Tested on: Akt
Assay: Phospho-Akt immunoblot in PC12 cells
Type: cell-based, rat
Conditions: 5 μM peptide, 20 min
Protocol: Immunoblotting experiments were conducted to test whether the chimeric polypeptides could, like NGF, induce autophosphorylation of TrkA and activation of its signal transduction pathways. PC12 cells were seeded in 6-well plates at a density of 2×10^6 cells/well and cultured in RPMI 1640 containing 0.5% FBS and 0.25% horse serum for 2 days. The low serum concentrations were necessary to reduce the basal levels of phosphorylation. The medium was refreshed two hours before beginning treatment. The cells were incubated with the polypeptides or NGF in serum-free medium for 15–20 min. The cells were then washed in PBS, lysed, and sonicated. The cell lysates were resolved by SDS-PAGE and transferred to a nitrocellulose membrane for immunoblotting. The primary antibodies used include Phospho-TrkA (Tyr490) antibody, Phospho-p44/p42 MAPK (Thr202/Tyr204) monoclonal antibody, and Phospho-Akt (Ser473) monoclonal antibody, all obtained from Cell Signaling Technology (Beverly, Mass., USA). Colorimetric detection was performed by standard techniques after using horse-radish peroxidase-conjugated secondary antibodies. In some experiments, TrkA tyrosine kinase inhibitors K-252a or AG879 (both from Calbiochem, La Jolla, Calif., USA) were used. In these cases, PC12 cells were incubated with 100 nM K-252a or 10 μM AG879 before addition of polypeptides or NGF.

In the case of “CTTTHTFVKALTMDGKQAAWRFIRIDTACKKKKKKKKKK (CTTTHTFVKALTMDGKQAAWRFIRIDTACKKKKKKKKKK; disulfide 1-29) [NL4-10K]”, the “activation (phosphorylation) of Akt” value is reported as “induced activation”.
